The text below walks through data of patent US20120207763A1, “PYRROLOPYRIMIDINE COMPOUNDS AND THEIR USES” (ASTEX THERAPEUTICS LIMITED, priority 2006, published 2012).

SMILES strings stand for the structures. pIC50: −log10 of the molar value.

The target of one assay is T1, JAK-3 (Homo sapiens, UniProt P52333).
T1 construct: GST fusion constructs of the kinase domains of both enzymes are used; GST
T1 sequence (P52333 822-1111 limits assumed): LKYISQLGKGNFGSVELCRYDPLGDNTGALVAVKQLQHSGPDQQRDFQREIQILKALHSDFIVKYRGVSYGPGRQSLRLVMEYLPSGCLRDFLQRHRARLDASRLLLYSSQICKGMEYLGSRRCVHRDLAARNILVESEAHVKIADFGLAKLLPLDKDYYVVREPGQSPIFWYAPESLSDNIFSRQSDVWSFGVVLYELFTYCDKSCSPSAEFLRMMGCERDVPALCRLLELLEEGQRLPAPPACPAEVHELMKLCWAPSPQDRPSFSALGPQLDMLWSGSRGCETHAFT
Briefly: JAK LANCE enzymatic assay (JAK-3). The assay is classed as biochemical. The conditions noted are these: Table A; read-out: Jak-3/ IC50. An excerpt: Binding of cytokines and certain growth factors to their respective receptors trigger activation of Janus kinases, which phosphorylate members of the STAT family. Phosphorylated STAT molecules dimerize and migrate to the nucleus where they bind to DNA and initiate transcription of responsive genes. Inhibitors of pathways downstream of cytokine/growth factor receptors have therapeutic potential for several indications. An enzymatic assay for JAK-3 and JAK-2 has been developed to identify T-cell selective inhibitors. GST fusion constructs of the kinase domains of both enzymes are used and a biotinylated, tyrosine containing peptide serves as substrate. Phosphorylation of this peptide by the respective kinase is quantified with an europium-labeled anti-phosphotyrosine antibody (Eu-PT66) as energy donor and a streptavidin-allophycocyanine conjugate (SA-APC) as energy acceptor. The assay has been established in a 384 well format.
In the JAK LANCE™ assay, a biotinylated peptide is incubated together with compounds and ATP in buffer. The phosphorylation reaction starts after addition of JAK kinase. After incubation at RT the reaction is stopped with EDTA and the product detected by addition Streptavidin-Allophycocyanin and Europium-labeled antiphosphotyrosine antibody. The signal is measured using an EnVision Reader. Exc: 320 nm, Em, Donor: 615 nm and Em, Acceptor: 665 nm in time resolved fashion with a delay of […].
Background: TR-FRET usually uses a lanthanide donor and a delayed reading to cut background.
As to `O=C1Cc2cnc(Nc3ccc(C(=O)N4CCOCC4)cc3)nc2N1`, the pIC50 was at most 7.00.
Take `CCC(CC)N1C(=O)Cc2cnc(Nc3cc(NC(=O)c4ccncc4)ccc3OC)nc21`: the pIC50 was at most 7.00.
`CCC(CC)N1C(=O)Cc2cnc(Nc3ccc(C(=O)NCCN4CCN(C)CC4)cc3)nc21`: the pIC50 was at most 7.00.
As for `CCC(CC)n1cnc2cnc(Nc3ccc(N4CCN(C(C)=O)CC4)cc3)nc21`, the pIC50 is at most 7.00.
Still for that read-out and setting: as for `CCC(CC)N1C(=O)Cc2cnc(Cl)nc21`, the figure is at most 7.00; as for `CCC(CC)N1C(=O)Cc2cnc(Nc3cccc(OCCN(CC)CC)c3)nc21`, at most 7.00.
As to `CCC(CC)n1ccc2cnc(Nc3ccc(N4CCN(C)CC4)cc3)nc21`, the pIC50 is at least 7.00.
Consider `CCC(CC)N1C(=O)Cc2cnc(Nc3cccc(-c4nncn4C)c3)nc21`, for which the pIC50 was at most 7.00.
Consider `CCC(CC)N1C(=O)Cc2cnc(Nc3ccc(C(=O)NC4CCCC4)cc3)nc21`, for which the pIC50 is at least 7.00.
With `CCC(CC)N1C(=O)Cc2cnc(Nc3cc(NC(=O)c4ccncc4)ccc3F)nc21`, the pIC50 is at most 7.00.
On to `CCC(CC)N1C(=O)Cc2cnc(Nc3ccc(C(=O)NC)cc3)nc21`, for which the pIC50 was at most 7.00.
Same read-out and setting: the value for `O=C1Cc2cnc(Nc3ccc(N4CCOCC4)cc3)nc2N1` was at most 7.00.
`CCC(CC)n1c(=O)[nH]c2cnc(Nc3ccc(N4CCN(C)CC4)cc3)nc21`: the pIC50 was at least 7.00.
On to `CCC(CC)N1C(=O)Cc2cnc(Nc3cccc(OCCN4CCOCC4)c3)nc21`, for which the pIC50 was at most 7.00.
With `CCC(CC)N1C(=O)Cc2cnc(Nc3ccc(C(=O)NCCN4CCCCC4)cc3)nc21`, the pIC50 is at most 7.00.
Consider `CCC(CC)n1ccc2cnc(Nc3ccc(N4CCN(C)CC4)cn3)nc21` [drawing 82], for which the pIC50 is at most 7.00.
Consider `CCC(CC)N1C(=O)Cc2cnc(Nc3cccc(C(=O)N4CCOCC4)c3)nc21`, for which the pIC50 is at most 7.00.
Consider `CN1CCN(C(=O)c2cccc(Nc3ncc4c(n3)N(C3CCCCC3)C(=O)C4)c2)CC1`, for which the pIC50 is at most 7.00.
Still for that read-out and setting: the value for `CN1CCN(C(=O)c2cccc(Nc3ncc4c(n3)N(C3CC3)C(=O)C4)c2)CC1` was at most 7.00.
For the compound `COc1ccc(C(=O)N2CCN(C)CC2)cc1Nc1ncc2c(n1)NC(=O)C2` [drawing 20], the pIC50 is at most 7.00.
Regarding `CC(=O)N1CCN(c2ccc(Nc3ncc(Br)c(Nc4ccccn4)n3)cc2)CC1`, the pIC50 is at least 7.00.
For the compound `CCC(CC)n1ccc2cnc(Nc3cccc(NC(=O)c4ccncc4)c3)nc21`, the pIC50 was at least 7.00.
On to `CCC(CC)N1C(=O)Cc2cnc(Nc3ccc(C(=O)NCCN(C)C)cc3)nc21`, for which the pIC50 was at most 7.00.
As to `CCC(CC)n1cnc2cnc(Nc3ccc(N4CCN(C)CC4)cc3)nc21`, the pIC50 was at most 7.00.
`CCC(CC)N1C(=O)Cc2cnc(Nc3ccc(N4CCC(N5CCN(C)CC5)CC4)cc3)nc21`: the pIC50 is at least 7.00.
`CCN1C(=O)Cc2cnc(Nc3ccc(N4CCN(C)CC4)cc3)nc21`: the pIC50 is at most 7.00.
Turning to `CCC(c1ccccc1)N1C(=O)Cc2cnc(Nc3cccc(OCCn4ccnc4)c3)nc21` (centres unmarked), the pIC50 was at most 7.00.
With `O=C(c1ccc(Nc2ncc3c(n2)N(C2CC2)C(=O)C3)cc1)N1CCOCC1`, the pIC50 is at most 7.00.
In the case of `O=C1Cc2cnc(Nc3ccc(N4CCOCC4)cc3)nc2N1C1CCCC1`, the pIC50 was at most 7.00.
For the compound `CCC(CC)N1C(=O)Cc2cnc(Nc3cccc(NCCN4CCN(C)CC4)c3)nc21`, the pIC50 was at least 7.00.
In the case of `CCC(CC)N1C(=O)Cc2cnc(Nc3ccc(NC(=O)c4cccnc4)cc3)nc21`, the pIC50 is at most 7.00.
Turning to `O=C1Cc2cnc(Nc3ccc(N4CCOCC4)cc3)nc2N1C1CC1`, the pIC50 is at most 7.00.
As for `CCC(CC)N1C(=O)Cc2cnc(Nc3cccc(N(C)CCN4CCCC4)c3)nc21`, the pIC50 was at most 7.00.
On the same count and under the same terms, as for `CCC(CC)N1C(=O)Cc2cnc(Nc3ccc(NC(=O)c4ccncc4)cc3)nc21`, the figure is at most 7.00.
With `CCC(CC)N1C(=O)Cc2cnc(Nc3cccc(OCCN4CCCC4)c3)nc21`, the pIC50 is at least 7.00.
Same read-out and setting: as for `CCC(CC)N1C(=O)Cc2cnc(Nc3ccc(C(=O)N(C)C)cc3)nc21`, the figure is at most 7.00.
Same read-out and setting: the value for `CN1CCN(c2ccc(Nc3ncc4c(n3)N(C3CCCCC3)C(=O)C4)cc2)CC1` was at least 7.00; that for `CCC(CC)N1C(=O)Cc2cnc(Nc3cccc(C(=O)N4CCN(C)CC4)c3)nc21` was at most 7.00.
On to `CCC(CC)N1C(=O)Cc2cnc(Nc3cc(C(=O)N4CCOCC4)ccc3OC)nc21`, for which the pIC50 was at most 7.00.
The same measure, in the same setting: the value for `CCC(CC)N1C(=O)Cc2cnc(Nc3ccc(NS(=O)(=O)c4ccc(C)cc4)cc3)nc21` was at most 7.00; that for `CCC(CC)N1C(=O)C(C)(C)c2cnc(Nc3ccc(N4CCN(C(C)=O)CC4)cc3)nc21` was at most 7.00.
For the compound `CCC(CC)N1C(=O)Cc2cnc(Nc3cc(C(=O)N4CCOCC4)ccc3F)nc21`, the pIC50 is at most 7.00.
Take `COc1ccc(C(=O)N2CCOCC2)cc1Nc1ncc2c(n1)NC(=O)C2` [drawing 19]: the pIC50 is at most 7.00.
In the case of `CCC(CC)N1C(=O)Cc2cnc(Nc3cccc(OCCn4ccnc4)c3)nc21`, the pIC50 is at most 7.00.
The same measure, in the same setting: the value for `CCC(CC)N1C(=O)Cc2cnc(Nc3ccc(N4CCN(C(C)=O)CC4)cc3)nc21` was at least 7.00; that for `CCC(CC)N1C(=O)Cc2cnc(Nc3cccc(OCCN4CCN(C)CC4)c3)nc21` was at most 7.00; that for `CCC(CC)n1ccc2cnc(Nc3cccc(OCCN4CCCC4)c3)nc21` was at least 7.00.
As to `CCC(CC)n1c(=O)n(C)c2cnc(Nc3ccc(N4CCN(C)CC4)cc3)nc21`, the pIC50 is at least 7.00.
Consider `CCC(CC)N1C(=O)Cc2cnc(Nc3ccc(N4CCN(C)CC4)cc3)nc21`, for which the pIC50 is at least 7.00.
For `CN1CCN(c2ccc(Nc3ncc4c(n3)N(C3CC3)C(=O)C4)cc2)CC1`, the pIC50 is at most 7.00.
For `CCC(CC)N1C(=O)Cc2cnc(Nc3ccc(N4CCC(O)CC4)cc3)nc21`, the pIC50 was at least 7.00.
As for `CCC(CC)n1ccc2cnc(Nc3ccc(N4CCN(C)CC4)c(F)c3)nc21` [drawing 83], the pIC50 was at least 7.00.
Take `CCC(c1ccccc1)n1ccc2cnc(Nc3ccc(N4CCN(C(C)=O)CC4)cc3)nc21` (centres unmarked): the pIC50 is at least 7.00.
With `CCC(CC)N1C(=O)Cc2cnc(Nc3ccc(N4CCN(C)CC4)cn3)nc21`, the pIC50 was at most 7.00.
In the case of `CCC(CC)N1C(=O)Cc2cnc(Nc3ccc(S(=O)(=O)N4CCN(C)CC4)cc3)nc21`, the pIC50 was at most 7.00.
`CCC(c1ccccc1)N1C(=O)Cc2cnc(Nc3ccc(N4CCN(C(C)=O)CC4)cc3)nc21` (centres unmarked): the pIC50 was at most 7.00.
As to `CCC(CC)n1c(=O)n(C)c2cnc(Nc3ccc(N4CCN(C(C)=O)CC4)cc3)nc21`, the pIC50 is at least 7.00.
`CCC(CC)N1C(=O)Cc2cnc(Nc3ccc(S(=O)(=O)Nc4ccccn4)cc3)nc21`: the pIC50 was at most 7.00.
For the compound `COc1ccc(C(=O)N2CCOCC2)cc1Nc1ncc2c(n1)NC(=O)C2` [drawing 17], the pIC50 is at most 7.00.
On to `CCC(CC)N1C(=O)Cc2cnc(Nc3ccc(NC(C)=O)cc3)nc21`, for which the pIC50 is at most 7.00.
Regarding `CCC(CC)N1C(=O)Cc2cnc(Nc3ccc(N4CCC(OC(=O)c5ccccc5)CC4)cc3)nc21`, the pIC50 was at most 7.00.
With `CCC(CC)N1C(=O)Cc2cnc(Nc3ccc(N4CCOCC4)cc3)nc21`, the pIC50 is at least 7.00.
Take `CCC(CC)n1ccc2cnc(Nc3ccc(N4CCN(C(C)=O)CC4)cc3)nc21` [drawing 51]: the pIC50 was at least 7.00.
`CCC(CC)N1C(=O)Cc2cnc(Nc3ccc(C(=O)N4CCN(C)CC4)cc3)nc21`: the pIC50 was at most 7.00.
The same measure, in the same setting: the value for `CCC(CC)N1C(=O)Cc2cnc(Nc3ccc(OCCN4CCCC4)cc3)nc21` was at least 7.00.
With `CCC(CC)N1C(=O)Cc2cnc(Nc3ccc(N4CCN(C(C)=O)CC4)cn3)nc21`, the pIC50 was at most 7.00.
For `CCC(CC)N1C(=O)Cc2cnc(Nc3ccc(C(=O)NC(C)C)cc3)nc21`, the pIC50 was at most 7.00.

Still in this assay, the particulars now being: Table B; read-out: Jak-3 Lance/ IC50 [nmol I-1].
On to `Cc1cn(C2CC2)c2nc(Nc3ccc(N4CCN(C)CC4)cc3)ncc12` [drawing 121], for which the pIC50 is at most 7.00.
Regarding `Cc1cn(C2CCCCC2)c2nc(Nc3ccc(N4CCNCC4)cn3)ncc12` [drawing 127], the pIC50 was at most 7.00.
In the case of `CCC(CC)n1c(CO)cc2cnc(Nc3ccc(N4CCN(C(C)=O)CC4)cc3)nc21` [drawing 119], the pIC50 was at least 7.00.
`CCC(CC)n1ccc2cnc(NC3CC3)nc21` [drawing 100]: the pIC50 is at most 7.00.
On to `CCC(CC)n1ccc2cnc(Nc3ccc(C(=O)NC4CCCC4)cc3)nc21` [drawing 99], for which the pIC50 was at least 7.00.
In the case of `Cc1cn(C2CC2)c2nc(Nc3ccc(N4CCNCC4)cn3)ncc12` [drawing 123], the pIC50 was at most 7.00.
In the case of `CCC(CC)n1c(C)cc2cnc(Nc3ccc(N4CCNCC4)cc3)nc21` [drawing 125], the pIC50 was at least 7.00.
As to `CC(=O)N1CCN(c2ccc(Nc3ncc4ccn(C5CCCC5)c4n3)cc2)CC1` [drawing 111], the pIC50 was at most 7.00.
In the case of `CCOC(OCC)c1cc2cnc(Nc3ccc(N4CCN(C(C)=O)CC4)cc3)nc2n1C(CC)CC` [drawing 117], the pIC50 is at most 7.00.
Regarding `CCC(CC)N1C(=O)C(C)(C)c2cnc(Nc3ccc(N4CCN(C)CC4)cc3)nc21` [drawing 105], the pIC50 is at most 7.00.
On to `CCC(CC)n1cc(C)c2cnc(Nc3ccc(C(=O)NC4CCCC4)cc3)nc21` [drawing 116], for which the pIC50 was at most 7.00.
For the compound `CCC(CC)n1cc(C)c2cnc(Nc3ccc(N4CCN(C(C)=O)CC4)cc3)nc21` [drawing 101], the pIC50 is at most 7.00.
Take `Cc1cn(C2CCCCC2)c2nc(Nc3ccc(N4CCNCC4)cc3)ncc12`: the pIC50 was at most 7.00.
